Where two headings read alike, the source gives them in different places.
Legend:
[1] = Plasma pharmacokinetics of sildenafil and its N-oxide; format: in vivo; details: male, NMRI, mouse, mice, plasma; for AUC: Tend = 7 hrs, read-out: AUC0→end; for AUC(0-inf): Tend = ∞
Experimental: Liquid Chromatography-Tandem Mass Spectrometry (LC-MS/MS) was performed using a Sciex API4000 LC-MS/MS. […] Compound peak area was used for quantification. The calibration curves were fitted to the model y=A+Bx+Cx^2 (y is the peak area of the analyte, x is the nominal calibration level in ng/ml (plasma) or ng/g (brain), A is the intercept, B is the slope and C is the description of the curvature). 1/x^2 weighing was used. LC-MS/MS system performance was monitored using a reference solution injected at standard intervals. […] The Lower Limit Of Quantification (LLOQ) was established at 1.00 ng/ml and 5.00 ng/brain, for plasma and brain samples, respectively. Reversed phase HPLC was performed using gradient elution by a Hypersil BDS C18 100×4.6 mm 3 μm analytical column, with a temperature of 45° C. and a flow of 1.00 ml/min: […]

CYP3A4 = CYP3A4 (Homo sapiens, UniProt P08684); details: cited from earlier work
Chain of CYP3A4 (P08684 whole entry): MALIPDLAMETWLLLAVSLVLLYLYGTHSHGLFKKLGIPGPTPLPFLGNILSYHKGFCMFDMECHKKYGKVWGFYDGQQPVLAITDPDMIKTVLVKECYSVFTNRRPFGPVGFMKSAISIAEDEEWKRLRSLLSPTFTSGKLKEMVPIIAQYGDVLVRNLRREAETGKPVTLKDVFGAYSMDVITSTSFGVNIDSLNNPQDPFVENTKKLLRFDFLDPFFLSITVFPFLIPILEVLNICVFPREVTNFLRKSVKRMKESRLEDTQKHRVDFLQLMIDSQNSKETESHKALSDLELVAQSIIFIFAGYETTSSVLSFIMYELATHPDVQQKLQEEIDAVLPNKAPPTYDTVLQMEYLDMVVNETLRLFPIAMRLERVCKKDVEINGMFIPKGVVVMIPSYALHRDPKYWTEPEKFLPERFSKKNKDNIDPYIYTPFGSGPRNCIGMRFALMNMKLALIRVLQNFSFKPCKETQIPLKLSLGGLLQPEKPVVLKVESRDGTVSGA

PDE-I = test: In vitro inhibition of phosphodiesterases (CEREP): PDE-I; details: bovine brain
[2] = Plasma and brain concentrations of sildenafil and its N-oxide after i.v. or p.o. administration to mice (LC-MS/MS); format: in vivo, male NMRI mice; details: sildenafil administered i.v. or p.o.
Experimental: Sildenafil and its N-oxide were analyzed in mouse plasma and brain samples using a generic bioanalytical method comprising protein precipitation and HPLC with MS/MS detection.
Sample preparation: Proteins in 100 μl plasma were precipitated with acetonitrile, and 5 μl samples of the obtained solution were analyzed. Complete brains were homogenized and centrifuged, and 10 μl samples of the supernatant were analyzed.
Liquid Chromatography-Tandem Mass Spectrometry (LC-MS/MS) was performed using a Sciex API4000 LC-MS/MS. Quantification of the samples was done using extracted calibration samples, treated the same as the study samples in the range of 1-5000 ng/ml and 5.0-5000 ng/brain for plasma and brains samples, respectively. Compound peak area was used for quantification. The calibration curves were fitted to the model y=A+Bx+Cx^2 (y is the peak area of the analyte, x is the nominal calibration level in ng/ml (plasma) or ng/g (brain), A is the intercept, B is the slope and C is the description of the curvature). 1/x^2 weighing was used. LC-MS/MS system performance was monitored using a reference solution injected at standard intervals. The method use for testing was not validated in detail, therefore the reported concentrations were good estimations. The Lower Limit Of Quantification (LLOQ) was established at 1.00 ng/ml and 5.00 ng/brain, for plasma and brain samples, respectively. […]

PDE-V = PDE-V (Homo sapiens, UniProt O76074); details: cited from earlier work
CYP2C9 = CYP2C9 (Homo sapiens, UniProt P11712); details: cited from earlier work
Chain of CYP2C9 (P11712 whole entry): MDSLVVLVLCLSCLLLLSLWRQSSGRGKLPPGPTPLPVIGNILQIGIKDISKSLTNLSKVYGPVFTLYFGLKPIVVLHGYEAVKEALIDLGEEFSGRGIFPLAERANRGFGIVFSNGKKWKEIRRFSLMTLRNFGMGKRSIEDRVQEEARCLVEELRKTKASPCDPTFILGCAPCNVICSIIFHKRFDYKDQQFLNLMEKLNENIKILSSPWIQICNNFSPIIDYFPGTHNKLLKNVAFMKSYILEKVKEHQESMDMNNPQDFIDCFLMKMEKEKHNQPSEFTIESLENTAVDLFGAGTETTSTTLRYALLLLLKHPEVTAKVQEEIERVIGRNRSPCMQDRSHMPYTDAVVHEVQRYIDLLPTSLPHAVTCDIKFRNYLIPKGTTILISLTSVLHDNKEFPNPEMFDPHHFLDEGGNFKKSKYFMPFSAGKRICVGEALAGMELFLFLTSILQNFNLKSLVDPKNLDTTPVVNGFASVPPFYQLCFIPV

PDE-IV = test: In vitro inhibition of phosphodiesterases (CEREP): PDE-IV; details: human U-937 monocytes
[3] = in vivo; cited from earlier work

Structure (SMILES): CCCc1nn(C)c2c(=O)[nH]c(-c3cc(S(=O)(=O)N4CCN(C)CC4)ccc3OCC)nc12 [Sildenafil, 1-[4-ethoxy-3-(6,7-dihydro-1-methyl-7-oxo-3-propyl-1H-pyrazolo[4,3-d]pyrimidin-5-yl)phenyl-sulfonyl]-4-methylpiperazine, reference compound]
- Tmax ([1]; iv, i.v. 1 mg/kg): 0 h
- half-life ([1]; iv, i.v. 1 mg/kg): 1.4 h
- AUC ([1]; iv, i.v. 1 mg/kg): 232 ng·h/mL
- AUC(0-inf) ([1]; iv, i.v. 1 mg/kg): 232 ng·h/mL
- Cmax ([1]; iv, i.v. 1 mg/kg, extrapolated to T0 (time zero), read-out: Cmax (C0)): 538 ng/mL
- Vd ([1]; iv, i.v. 1 mg/kg): 8.9 L/kg
- clearance ([1]; iv, i.v. 1 mg/kg): 71.8 mL/min/kg
- bioavailability ([1]; po, 10 mg/kg, i.v.): 28.9%
- Tmax ([1]; po, p.o. 10 mg/kg): 0.2 h
- half-life ([1]; po, p.o. 10 mg/kg): 1.1 h
- AUC ([1]; po, p.o. 10 mg/kg): 661 ng·h/mL
- AUC(0-inf) ([1]; po, p.o. 10 mg/kg): 670 ng·h/mL
- Cmax ([1]; po, p.o. 10 mg/kg, read-out: Cmax): 533 ng/mL
- clearance route by hepatic microsomal iso-enzyme CYP3A4 (CYP3A4): major route
- pIC50 PDE-I (PDE-I): 5.0
- N-oxide in the brain [2]: no trace can be found at all
- more potent on PDE-V than on PDE-1 (PDE-V; in vitro, versus PDE-1): > 80 fold
- more potent on PDE-V than on PDE-II (PDE-V; in vitro, versus PDE-II): > 700 fold
- more potent on PDE-V than on PDE-IV (PDE-V; in vitro, versus PDE-IV): > 700 fold
- more potent on PDE-V than on PDE-IX (PDE-V; in vitro, versus PDE-IX): > 700 fold
- more potent on PDE-V than on PDE-VI (PDE-V; in vitro, versus PDE-VI): about 10 fold
- more potent on PDE-V than on PDE-VII (PDE-V; in vitro, versus PDE-VII): > 700 fold
- more potent on PDE-V than on PDE-VIII (PDE-V; in vitro, versus PDE-VIII): > 700 fold
- more potent on PDE-V than on PDE-X (PDE-V; in vitro, versus PDE-X): > 700 fold
- more potent on PDE-V than on PDE-XI (PDE-V; in vitro, versus PDE-XI): > 700 fold
- clearance route by hepatic microsomal iso-enzyme CYP2C9 (CYP2C9): minor route
- pIC50 PDE-IV (PDE-IV): 4.8

Structure (SMILES): CCCc1nn(C)c2c(=O)[nH]c(-c3cc(S(=O)(=O)N4CCNCC4)ccc3OCC)nc12 [UK 103,320, 1-[[3-(6,7-dihydro-1-methyl-7-oxo-3-propyl-1H-pyrazolo[4,3-d]pyrimidin-5-yl)-4-ethoxy-phenyl]sulfonyl]-piperazine]
- Plasma concentrations of the metabolite relative to those seen for sildenafil [3]: approximately 40%
- in vitro potency for PDE-V relative to the parent drug (PDE-V; of sildenafil): approximately 50%
- potency relative to sildenafil (PDE-V; reported): about half
